Results reported in patent US11604141B2, “Zinc-selective fluorescent probes for emission-ratiometric imaging” (Georgia Tech Research Corporation, priority 2017, dated 2023).
Counter-ions that a name gives are not always drawn.

Key:
[1] = test system: labile Zn(II) pools in live NIH 3T3 mouse fibroblasts; experiment: Ratiometric TPEM imaging of labile Zn(II) in live cells; format: cell-based
Protocol: FIG. 25A-25B. Ratiometric imaging of labile Zn(II) pools in live NIH 3T3 mouse fibroblasts with chromis-2 by TPEM (excitation at 720 nm). (FIG. 25A) Left: Phase contrast image (DIC) and fluorescence intensity images acquired with 425-462 nm (BP1) and 478-540 nm (BP2) bandpass filters, respectively. Right: Intensity ratio image with R=BP2/BP1. (FIG. 25B) Left: Ratio images (BP2/BP1) prior (at 3 min) and after addition of 50 μM ZnSO4 and 5 μM pyrithione (at 9 min). […] Right: Time course of the average intensity ratio change for the ROI indicated with a white circle in the left panel. The asterisks indicate time points for the respective ratio images shown to the left. Scale bars: 40 μm.
To evaluate the Zn(II)-dependent ratiometric response of chromis-2 within the chemical complexity of a live cell, we performed a perfusion experiment with NIH 3T3 mouse fibroblasts as model system (FIG. 25). To this end, fibroblast cells were cultured in Dulbecco's modified Eagle's medium (DMEM, Lonza) supplemented with 10% bovine serum (Gemini), penicillin/streptomycin (50 IU/mL), 200 μM L-glutamine, and 100 μM sodium pyruvate at 37° C. under an atmosphere of humidified air containing 5% CO2. For imaging experiments, cells were grown to 70% confluency on MatTek glass bottom culture dishes pre-coated with poly-L-lysine using phenol red-free DMEM (10% bovine serum, 50 IU/mL penicillin/streptomycin, 200 μM L-glutamine, and 100 μM sodium pyruvate). After replacing the growth medium with serum-free DMEM containing chromis-2 (10 μM), cells were incubation for 30 minutes at 37° C. (5% CO2 atmosphere), and the incubation solution was again replaced with pre-warmed full media. Cells were imaged in an atmospheric chamber at 37° C., […], and 5% CO2 using a Zeiss LSM confocal NLO 710 microscope equipped with a femtosecond pulsed Ti:sapphire laser. Scanning fluorescence micrographs were acquired with excitation at 720 nm, and the integrated emission intensity was simultaneously collected through two band pass filters between 425-462 nm and 478-540 nm. The corresponding ratio-images were derived with ImageJ based on the integrated photon counts on a pixel-per-pixel basis (FIG. 25A, right). […] Although the fluorescence intensity distribution appears uneven, including distinct punctate localizations, the corresponding ratio-image indicates a rather even fractional saturation with an average ratio R of 0.64±0.2.

[2] = Fluorescence solvent deuterium-isotope studies (D2O vs H2O buffer); format: physicochemical
Protocol: Fluorescence Deuterium-Isotope Studies of Compounds 1 & 2. Comparison of the fluorescence intensities of compounds 1 and 2 were conducted in deuterated and non-deuterated buffer (10 mM PIPES, 100 mM KCl, pH/D 7.0, 25° C.). A 3.0-mL solution of aqueous buffer was supplemented with 10 μM of each compound (from 3 mM stock solutions in H2O), and after thorough mixing via magnetic stirring, fluorescence spectra of 1 were acquired over the spectral window of 380-700 nm with excitation at […] and analogous fluorescence spectra of 2 were acquired over the spectral window of 380-650 nm with excitation at […].
Fluorescence Comparison of 3b and chromis-2 (4). Fluorescence comparison measurements of 3b and chromis-2 were conducted in deuterated and non-deuterated buffer (10 mM PIPES, 100 mM KCl, pH/D 7.0, 25° C.). A quartz cuvette with a 1-cm path length containing 3.0 mL of aqueous buffer was supplemented with 5 μM 3b (from a 3 mM stock solution in H2O), and after a 30-second equilibration via magnetic stirring, a fluorescence spectrum was acquired over the spectral window of 380-700 nm with excitation at 361 nm. The probe was then saturated with 5 μM ZnSO4.7H2O (from a 3 mM stock solution in H2O), and a fluorescence spectrum was acquired. This was repeated for 3b in deuterated buffer, but with supplementation of 5 μM ZnSO4.7H2O from a 3 mM stock solution in D2O. […]

[3] = Spectrophotometric pH titration, determination of protonation constants; format: physicochemical; details: aqueous 0.1 M KCl solution, 25° C., fit to a single protonation, read-out: ground-state pKa (pKH1) of the pyridyl acceptor
Protocol: FIG. 12. Spectrophotometric pH titration of compound 1 at 25° C. in aqueous buffer (5 mM PIPBS, 0.1 M KCl, 5 mM KOH, pH 5.6). Black arrows indicate the change in absorbance after each aliquot of HCl was added. The absorbance from 250-500 nm was recorded as a function of pHe (−log[H3O^+]), and the data were analyzed by non-linear least squares fitting to a single protonation to yield an average pKH1=4.49±0.002 (n=3).
FIG. 13. Spectrophotometric pH titration of compound 2 at 25° C. in 0.1 M KCl. Black arrows indicate the change in absorbance after each aliquot of HCl was added. The absorbance (250-500 nm) was recorded as a function of pHc (−log[H3O^+]), and the data were analyzed by non-linear least squares fitting to a single protonation to yield an average pKH1=2.34±0.002 (n=3).
Protonation constants were determined as concentration constants (log KH) based on potentiometric titrations using a combination double junction glass electrode. […] From the experimental emf data, the endpoint, electrode potential, and slope were determined using Gran's Method as implemented in the GLEE software package (pKw=13.78, μ=0.1 M KCl).^1 The calibration procedure was performed prior to each potentiometric titration, and the experimental electrode potential and slope that were used to calculate the experimental p[H] were derived as the average of the emf data from three independent titrations. […]

[4] = Steady-state absorption and fluorescence spectroscopy, molar ratio titration with Zn(II); format: physicochemical
Protocol: General Spectroscopic Methods. All buffers and stock solutions used for spectroscopic measurements were prepared using either HPLC-grade water (JT Baker) or 18.2 MΩ.cm Mili-Q water and filtered through a 0.2 μm filter to remove interfering dust particles or fibers. UV-Vis measurements were performed on a Varian Cary Bio50 spectrophotometer with a constant temperature accessory (Peltier) at 25° C. Fluorescence measurements were performed with a PTI fluorimeter equipped with a 75 W xenon arc lamp excitation source and a photomultiplier detection system (PMT voltage was 1100 V for all experiments). Fluorescence spectra were corrected for the spectral response of the detection system and for the spectral irradiance of the excitation source (via a calibrated photodiode). For all experiments, both UV-Vis and fluorescence, a 1-cm path length quartz cuvette was used, except for quantum yield determinations, which were performed with a 10-cm path length quartz cuvette for absorbance measurements.
Molar Ratio Titration of Probe 3b with Zn(II). […] After each aliquot, the solution was equilibrated for 30 seconds by magnetic stirring, and an absorbance (spectral window: 250-500 nm) (FIG. 14A) and fluorescence spectrum (excitation: 361 nm, spectral window: 380-700 nm) (FIG. 14B) were acquired.
Molar Ratio Titration of Chromis-2 with Zn(II). […] After each aliquot, the solution was equilibrated for 30 seconds by magnetic stirring, and an absorbance (spectral window: 250-500 nm) and fluorescence spectrum (excitation: 361 nm, spectral window: 380-700 nm) were acquired.

[5] = Excited-state pKa calculated using the Forster Cycle; format: physicochemical; details: calculated with the Forster Cycle
Excerpt: To circumvent the issue of excited-state protonation of the fluorophore, the inventors synthesized a chromis-1 compound 1, whose structure lacked the bis(2-pyridylmethyl)amine chelating moiety but incorporated an O-alkylsulfonate group to enhance water solubility, to determine the unperturbed ground-state pKa of the pyridyl acceptor.

[6] = Determination of fluorescence quantum yields (referenced to quinine sulfate); format: physicochemical; details: neutral form, 10 mM PIPES, 100 mM KCl, pH 7.0; sodium salt
Protocol: Determination of Fluorescence Quantum Yields. Fluorescence quantum yields of 1, 2, 3b and chromis-2 (4) were determined in aqueous buffer (10 mM PIPES, 0.1 M KCl) at pH 7.0 by a 4-point measurement over an OD range of 0.1-0.4 using a […], with fluorimeter excitation at 365 nm. For probes 3b and chromis-2, the solutions containing the free forms were supplemented with 20 μM EDTA (from a 30 mM stock solution in diH2O) to sequester adventitious Zn(II), whereas to determine the Zn(II)-bound forms, the solutions were supplemented with 20 μM ZnSO4.7H2O to ensure complete saturation of the fluorophore. Fluorescence quantum yields for all fluorophores were determined using quinine sulfate (Df=0.546 in 1.0 N H2SO4) as a fluorescence standard.^2 To determine the quantum yield of 3a, single-point measurements were performed in aqueous buffer (10 mM PIPES, 0.1 M KCl, pH 7.0) supplemented with 100 μM 4:1 DMPC:DMPG liposomes and at a probe concentration of 2 μM. The quantum yields were also referenced to quinine sulfate with an OD matching that of 3a (2 μM) in liposomes.

[7] = UV-vis absorption spectra in methanol; format: physicochemical; details: methanol at 298 K, relative to compound I
Excerpt: FIG. 26: UV-vis absorption spectra of compounds I, […] in methanol at 298 K.
UV-vis Spectral Characterization of Compounds I, II, and III.

[8] = in 1N H2SO4; cited from earlier work
[9] = Neutral, 10 mM PIPES, 100 mM KCl, pH 7.0

## COc1ccc(-c2cnc(-c3cccc(CN(Cc4ncccn4)Cc4ncccn4)n3)s2)cc1 [chromis-2]
[1]; NIH 3T3
  increase of intensity ratio upon ZnSO4 and pyrithione: more than 4 fold
[1]; NIH 3T3, 10 μM probe, excitation 720 nm, before additions
  average intensity ratio R (BP2/BP1), initial: 0.64±0.2
[1]; NIH 3T3, 50 μM ZnSO4 and 5 μM pyrithione
  intensity ratio R after ZnSO4 and pyrithione: 2.36±0.6
[1]; NIH 3T3, 100 μM TPEN
  intensity ratio R after TPEN: 0.55±0.2

## O=S(=O)([O-])CCCOc1ccc(-c2cnc(-c3ccccn3)s2)cc1.[Na+] [compound 2, 3-(4-(2-(pyridin-2-yl)thiazol-5-yl)phenoxy)propane-1-sulfonate sodium salt]
[2]; D2O versus H2O buffers
  solvent deuterium isotope effect on emission (in words): identical emission profiles
[3]
  pKa: 2.34
[4]; [9]
  Abs λmax: 345 nm
  Em λmax: 467 nm
  ε: 2.25 10^4 M^−1cm^−1
[4]; Protonated, 0.1N HCl (pH 1.0)
  Abs λmax: 386 nm
  Em λmax: 565 nm
  ε: 2.05 10^4 M^−1cm^−1
[5]
  pKa: 9.4
[5]; sodium salt
  excited-state pKa (pKa*): 9.5
[6]
  ΦF fluorescence quantum yield: 0.80

## O=S(=O)([O-])CCCOc1ccc(-c2cnc(-c3ccncc3)s2)cc1.[Na+] [compound 1, 3-(4-(2-(pyridin-4-yl)thiazol-5-yl)phenoxy)propane-1-sulfonate sodium salt]
[2]; 10 mM PIPES, 0.1 M KCl, pH/D 7.0, 25° C.
  increase in fluorescence intensity in D2O relative to H2O: 18%
[3]
  pKa: 4.49 ± 0.002
[4]; [9]
  Abs λmax: 346 nm
  Em λmax: 489 nm
  ε: 1.80 10^4 M^−1cm^−1
[4]; Protonated, 0.1N HCl (pH 1.0)
  Abs λmax: 397 nm
  Em λmax: 582 nm
  ε: 1.96 10^4 M^−1cm^−1
[5]
  pKa: ~11.7
[6]
  ΦF fluorescence quantum yield: 0.65

## CN(C)c1ccc(-c2cnc(-c3ccccn3)s2)cc1 [Compound II]
[7]
  change of UV-vis absorption spectrum (in words): red-shifted absorption spectrum

## COc1ccc(-c2ccc(-c3cnc(-c4ccccn4)s3)s2)cc1 [Compound III]
[7]
  change of UV-vis absorption spectrum (in words): red-shifted absorption spectrum

## C=C[C@H]1C[N@@]2CC[C@H]1C[C@H]2[C@H](O)c1ccnc2ccc(OC)cc12 [quinine sulfate]
[8]
  ΦF of fluorescence standard: 0.546
